According to patent US20180015100A1, “COMBINATION PRODUCTS FOR THE TREATMENT OF BACTERIAL INFECTIONS AND METHODS OF PRODUCING OR DOSING OF SAME” (priority 2016, published 2018):
pIC50: −log10 of the molar value. In brackets after ≈: the same amount, converted by molar mass. Like-named read-outs stand apart in the source and are kept apart here.

What was measured:
[1] = test system: 385 Escherichia coli and 126 Klebsiella pneumoniae isolates; experiment: MIC, MIC50 and MIC90 by reference broth microdilution against 511 UTI/bloodstream isolates (USA and Europe 2014-2015); format: cell-based
[2] = test system: Francisella tularensis ShuS4; experiment: microbe, parasite or virus in culture; format: cell-based
[3] = test system: Burkholderia pseudomallei 1026b; experiment: microbe, parasite or virus in culture; format: cell-based
[4] = test system: beta-lactamase producing E. coli (CTX-M-55; CTX-M-15, TEM-OSBL); experiment: microbe, parasite or virus in culture; format: cell-based
[5] = test system: beta-lactamase producing K. pneumoniae; experiment: In vitro chemostat model, clavulanate exposures with fixed ceftibuten exposure; format: cell-based
CTX-M-15 = CTX-M-15 (Escherichia coli, UniProt Q9EXV5); experiment: Competition assay with nitrocefin (IC50); format: biochemical
Sequence of CTX-M-15 (Q9EXV5 entry or part of it): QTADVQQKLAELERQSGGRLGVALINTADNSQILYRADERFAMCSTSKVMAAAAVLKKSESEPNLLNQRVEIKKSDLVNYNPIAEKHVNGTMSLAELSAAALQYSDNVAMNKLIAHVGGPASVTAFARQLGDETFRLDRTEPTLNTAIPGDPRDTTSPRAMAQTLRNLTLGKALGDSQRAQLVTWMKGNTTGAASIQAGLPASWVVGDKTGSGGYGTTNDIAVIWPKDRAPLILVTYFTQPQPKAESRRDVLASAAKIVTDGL

AECO001 = experiment: MIC of cephalosporins (Table 16); format: cell-based
CTX-M-15 Strain = experiment: MIC of cephalosporins without and with CLV (Table 16); format: cell-based

SMILES: Nc1nc(/C(=C/CC(=O)O)C(=O)N[C@@H]2C(=O)N3C(C(=O)O)=CCS[C@H]23)cs1 [Ceftibuten, ceftibuten]
- cumulative % of isolates at MIC ([1]; MIC 1 μg/mL, All CTX-M-producing E. coli (294)): (22.1) %
- cumulative % of isolates at MIC ([1]; MIC 1 μg/mL, All CTX-M-producing K pneumoniae (71)): (9.9) %
- cumulative % of isolates at MIC ([1]; MIC 1 μg/mL, All CTX-M-producing isolates (365)): (19.7) %
- cumulative % of isolates at MIC ([1]; MIC 1 μg/mL, E. coli (385)): (19.7) %
- cumulative % of isolates at MIC ([1]; MIC 1 μg/mL, Isolates producing CTX-M Group 1 (276)): (9.1) %
- cumulative % of isolates at MIC ([1]; MIC 1 μg/mL, Isolates producing CTX-M Group 9 (92)): (50.0) %
- cumulative % of isolates at MIC ([1]; MIC 1 μg/mL, Isolates producing SHV ESBL (18)): (55.6) %
- cumulative % of isolates at MIC ([1]; MIC 1 μg/mL, K pneumoniae (126)): (15.1) %
- cumulative % of isolates at MIC ([1]; MIC 2 μg/mL, All CTX-M-producing E. coli (294)): (34.4) %
- cumulative % of isolates at MIC ([1]; MIC 2 μg/mL, All CTX-M-producing K pneumoniae (71)): (15.5) %
- cumulative % of isolates at MIC ([1]; MIC 2 μg/mL, All CTX-M-producing isolates (365)): (30.7) %
- cumulative % of isolates at MIC ([1]; MIC 2 μg/mL, E. coli (385)): (30.4) %
- cumulative % of isolates at MIC ([1]; MIC 2 μg/mL, Isolates producing CTX-M Group 1 (276)): (15.2) %
- cumulative % of isolates at MIC ([1]; MIC 2 μg/mL, Isolates producing CTX-M Group 9 (92)): (76.1) %
- cumulative % of isolates at MIC ([1]; MIC 2 μg/mL, Isolates producing SHV ESBL (18)): (61.1) %
- cumulative % of isolates at MIC ([1]; MIC 2 μg/mL, K pneumoniae (126)): (19.0) %
- cumulative % of isolates at MIC ([1]; MIC 4 μg/mL, All CTX-M-producing E. coli (294)): (45.6) %
- cumulative % of isolates at MIC ([1]; MIC 4 μg/mL, All CTX-M-producing K pneumoniae (71)): (32.4) %
- cumulative % of isolates at MIC ([1]; MIC 4 μg/mL, All CTX-M-producing isolates (365)): (43.0) %
- cumulative % of isolates at MIC ([1]; MIC 4 μg/mL, E. coli (385)): (40.0) %
- cumulative % of isolates at MIC ([1]; MIC 4 μg/mL, Isolates producing CTX-M Group 1 (276)): (28.3) %
- cumulative % of isolates at MIC ([1]; MIC 4 μg/mL, Isolates producing CTX-M Group 9 (92)): (87.0) %
- cumulative % of isolates at MIC ([1]; MIC 4 μg/mL, Isolates producing SHV ESBL (18)): (66.7) %
- cumulative % of isolates at MIC ([1]; MIC 4 μg/mL, K pneumoniae (126)): (31.7) %
- cumulative % of isolates at MIC ([1]; MIC 8 μg/mL, All CTX-M-producing E. coli (294)): (66.3) %
- cumulative % of isolates at MIC ([1]; MIC 8 μg/mL, All CTX-M-producing K pneumoniae (71)): (56.3) %
- cumulative % of isolates at MIC ([1]; MIC 8 μg/mL, All CTX-M-producing isolates (365)): (64.4) %
- cumulative % of isolates at MIC ([1]; MIC 8 μg/mL, E. coli (385)): (56.9) %
- cumulative % of isolates at MIC ([1]; MIC 8 μg/mL, Isolates producing CTX-M Group 1 (276)): (55.8) %
- cumulative % of isolates at MIC ([1]; MIC 8 μg/mL, Isolates producing CTX-M Group 9 (92)): (89.1) %
- cumulative % of isolates at MIC ([1]; MIC 8 μg/mL, Isolates producing SHV ESBL (18)): (72.2) %
- cumulative % of isolates at MIC ([1]; MIC 8 μg/mL, K pneumoniae (126)): (53.2) %
- cumulative % of isolates at MIC ([1]; MIC 16 μg/mL, All CTX-M-producing E. coli (294)): (83.0) %
- cumulative % of isolates at MIC ([1]; MIC 16 μg/mL, All CTX-M-producing K pneumoniae (71)): (73.2) %
- cumulative % of isolates at MIC ([1]; MIC 16 μg/mL, All CTX-M-producing isolates (365)): (81.1) %
- cumulative % of isolates at MIC ([1]; MIC 16 μg/mL, E. coli (385)): (73.0) %
- cumulative % of isolates at MIC ([1]; MIC 16 μg/mL, Isolates producing CTX-M Group 1 (276)): (76.8) %
- cumulative % of isolates at MIC ([1]; MIC 16 μg/mL, Isolates producing CTX-M Group 9 (92)): (92.4) %
- cumulative % of isolates at MIC ([1]; MIC 16 μg/mL, Isolates producing SHV ESBL (18)): (94.4) %
- cumulative % of isolates at MIC ([1]; MIC 16 μg/mL, K pneumoniae (126)): (69.0) %
- cumulative % of isolates at MIC ([1]; MIC >[…] μg/mL, All CTX-M-producing E. coli (294)): (100.0) %
- cumulative % of isolates at MIC ([1]; MIC >[…] μg/mL, All CTX-M-producing K pneumoniae (71)): (100.0) %
- cumulative % of isolates at MIC ([1]; MIC >[…] μg/mL, All CTX-M-producing isolates (365)): (100.0) %
- cumulative % of isolates at MIC ([1]; MIC >[…] μg/mL, E. coli (385)): (100.0) %
- cumulative % of isolates at MIC ([1]; MIC >[…] μg/mL, Isolates producing CTX-M Group 1 (276)): (100.0) %
- cumulative % of isolates at MIC ([1]; MIC >[…] μg/mL, Isolates producing CTX-M Group 9 (92)): (100.0) %
- cumulative % of isolates at MIC ([1]; MIC >[…] μg/mL, Isolates producing SHV ESBL (18)): (100.0) %
- cumulative % of isolates at MIC ([1]; MIC >[…] μg/mL, K pneumoniae (126)): (100.0) %
- cumulative % of isolates at MIC ([1]; MIC […] μg/mL, All CTX-M-producing E. coli (294)): (91.8) %
- cumulative % of isolates at MIC ([1]; MIC […] μg/mL, All CTX-M-producing K pneumoniae (71)): (83.1) %
- cumulative % of isolates at MIC ([1]; MIC […] μg/mL, All CTX-M-producing isolates (365)): (90.1) %
- cumulative % of isolates at MIC ([1]; MIC […] μg/mL, E. coli (385)): (82.1) %
- cumulative % of isolates at MIC ([1]; MIC […] μg/mL, Isolates producing CTX-M Group 1 (276)): (87.7) %
- cumulative % of isolates at MIC ([1]; MIC […] μg/mL, Isolates producing CTX-M Group 9 (92)): (95.7) %
- cumulative % of isolates at MIC ([1]; MIC […] μg/mL, Isolates producing SHV ESBL (18)): (94.4) %
- cumulative % of isolates at MIC ([1]; MIC […] μg/mL, K pneumoniae (126)): (79.4) %
- cumulative % of isolates at MIC ([1]; MIC […], Enterobacteriaceae (511)): (5.1) %
- MIC [2]: 0.25 µg/mL (≈ 0.609 µM)
- MIC [3]: 8 µg/mL (≈ 19.5 µM)
- MIC ([4]; E. coli CTX-M-15, TEM-OSBL): > 64 µg/mL
- MIC ([4]; E. coli CTX-M-55, listed as CTB): >64 µg/mL
- MIC ([4]; Escherichia coli, E. coli CTX-M-55, read-out: MIC): > 64 µg/mL
- MIC ([5]; K. pneumoniae CTX-M-14, SHV-12): 16 µg/mL
- MIC ([5]; K. pneumoniae CTX-M-15, SHV-12): > 64 µg/mL
- pIC50 (CTX-M-15): < 3.00
- pIC50 (CTX-M-15; read-out: IC50 (95% CI), competition with nitrocefin): < 3.00
- MIC (AECO001): 0.5 µg/mL
- MIC (CTX-M-15 Strain; read-out: MIC CTX-M-15 Strain − CLV): 16 µg/mL
- MIC CTX-M-15 Strain + CLV (CTX-M-15 Strain; with CLV): 1 µg/mL
